According to patent US8906952B2, “Indole derivative or pharmaceutically acceptable salt thereof, preparation method thereof, and pharmaceutical composition for preventing or treating metabolic diseases containing same as active ingredient” (Korea Research Institute of Bioscience and Biotechnology, priority 2011, dated 2014):

Test system: HepG2 cells
Assay: DGAT inhibitory effect in HepG2 cells (triglyceride production from [14C]glycerol)
Assay type: cell-based
Settings: Homo sapiens; for activity at 10 µM: HepG2, 6 h, DMSO control = 100, read-out: Triglyceride production rate (%)/HepG2 cells at 10 μM; for inhibition at 10 µM: HepG2, 10 μM, read-out: biosynthesis inhibition rate of triglyceride
Method: To investigate inhibition effect on intracellular DGAT enzyme activity of the compounds obtained in Examples 1-51, intracellular DGAT enzyme activity was measured using human-derived liver HepG2 cells.
HepG2 cells were purchased from ATCC, and cultured in 37° C., 5% CO2 incubator including minimum essential medium (2 mM L-glutamine, earle's BSS adjusted to contain 1.5 g/L sodium bicarbonate, 0.1 mM nonessential amino acids, and 1 mM sodium pyruvate) added with 10% fetal bovine serum (FBS) and 1% antibiotic (100 U/ml penicillin and 100 µg/ml streptomycin).
The intracellular DGAT enzyme activity was measured based on an amount of triglycerides produced in the cultured HepG2 cells, by adding 10 μM enzyme inhibitor compounds obtained in Examples 1-51, respectively, and then determining the effect of the enzyme inhibitors according to reduction rate of the triglyceride production.
Specifically, cells were seeded 1×10^6 cell/ml per well of the 24 well culture plate, and 24 hours after incubation, medium was exchanged with FBS-free DMEM medium, and sample of 0.2 mCi [^14C]glycerol (Amersham) was added as substrate, and the reaction was allowed to occur for 6 hr. The induced production of triglyceride was catalyzed by the DGAT enzyme, and DGAT enzyme activity was determined based on the amount of production of triglyceride which was measured based on the amount of radiation. The sample was dissolved in dimethylsulfoxide (DMSO) to be used, and the control group in the triglyceride production reaction was reacted with dimethylsulfoxide only (i.e., without sample), and the amount of the triglyceride production rate was set to 100.
After the reaction completed, the substrate [^14C]glycerol which was either not absorbed into cells or not used for the reaction, were removed with phosphate-buffer-saline (PBS), and 0.5 ml extraction solvent (hexane:isopropanol=3:2, v:v) was added to extract full fat containing triglycerides. With 0.5 ml extraction solvent, extract was obtained two times for 30 min each, and 1 ml of the extract was concentrated with nitrogen gas. After removing the extraction solvent, the total fat was dissolved in organic solvent (chloroform:methanol=2:1) and spotted with thin-layer chromatography (TLC:silica gel 60F254, thickness: 0.5 mm, Merck) on the developing solvent (hexane:diethyl ether:acetic acid=80:20:1, v: v: v). Triglycerides (Rf value: 0.4) were isolated on TLC, and after exposing the TLC plate to the film with photosensitivity to radiation energy (imaging plate' Fujifilm, BMS-MS 2040) for 3 hr, the amount of [^14C] radiation of triglyceride was measured by imaging analysis (FLA 7000). The remaining cells after the extraction were dissolved in 0.3 ml 0.1 N sodium hydroxide for use in the measurement of protein concentration of the cells used for the reaction.
The experimental errors among the respective experimental groups were compensated with the experimental value which was obtained by dividing the measured radiation of triglyceride by protein concentration, and the production rate of triglyceride according to the respective compounds of Examples 1-51 are tabulated below.

| Structure (SMILES) | activity at 10 µM [%] | inhibition at 10 µM [%] |
| --- | --- | --- |
| CC(C)N(NC(=O)c1ccccc1)C(=O)/C=C/c1cn(C(=O)OC(C)(C)C)c2ccccc12 [Example 1, (E)-tert-butyl 3-(3-(2-benzoyl-1-isopropylhydrazinyl)-3-oxoprop-1-enyl)-1H-indole-1-carboxylate] | 60.1 | 30 to 40 |
| CC(C)N(NC(=O)c1ccccn1)C(=O)/C=C/c1cn(C(=O)OC(C)(C)C)c2ccccc12 [Example 2, (E)-tert-butyl 3-(3-(1-isopropyl-2-picolinoylhydrazinyl)-3-oxoprop-1-enyl)-1H-indole-1-carboxylate] | 64.2 | 30 to 40 |
| CC(C)N(NC(=O)c1cccnc1)C(=O)/C=C/c1cn(C(=O)OC(C)(C)C)c2ccccc12 [Example 3, (E)-tert-butyl 3-(3-(1-isopropyl-2-nicotinoylhydrazinyl)-3-oxoprop-1-enyl)-1H-indole-1-carboxylate] | 66.8 | 30 to 40 |
| CC(C)N(NC(=O)c1cccc(O)c1)C(=O)/C=C/c1cn(C(=O)OC(C)(C)C)c2ccccc12 [Example 4, (E)-tert-butyl 3-(3-(2-(3-hydroxybenzoyl)-1-isopropylhydrazinyl)-3-oxoprop-1-enyl)-1H-indole-1-carboxylate] | 86.7 |  |
| CC(C)N(NC(=O)c1ccc(O)cc1)C(=O)/C=C/c1cn(C(=O)OC(C)(C)C)c2ccccc12 [Example 5, (E)-tert-butyl 3-(3-(2-(4-hydroxybenzoyl)-1-isopropylhydrazinyl)-3-oxoprop-1-enyl)-1H-indole-1-carboxylate] | 62.2 | 30 to 40 |
| COc1cccc(C(=O)NN(C(=O)/C=C/c2cn(C(=O)OC(C)(C)C)c3ccccc23)C(C)C)c1 [Example 6, (E)-tert-butyl 3-(3-(1-isopropyl-2-(3-methoxybenzoyl)hydrazinyl)-3-oxoprop-1-enyl)-1H-indole-1-carboxylate] | 74.8 | 20 to 30 |
| COc1ccc(C(=O)NN(C(=O)/C=C/c2cn(C(=O)OC(C)(C)C)c3ccccc23)C(C)C)cc1 [Example 7, (E)-tert-butyl 3-(3-(1-isopropyl-2-(4-methoxybenzoyl)hydrazinyl)-3-oxoprop-1-enyl)-1H-indole-1-carboxylate] | 85.8 |  |
| CC(C)N(NC(=O)c1cccc(OCCN2CCOCC2)c1)C(=O)/C=C/c1cn(C(=O)OC(C)(C)C)c2ccccc12 [Example 8, (E)-tert-butyl 3-(3-(1-isopropyl-2-(3-(2-morpholinoethoxy)benzoyl)hydrazinyl)-3-oxoprop-1-enyl)-1H-indole-1-carboxylate] | 85.2 |  |
| CC(C)N(NC(=O)c1ccc(OCCN2CCOCC2)cc1)C(=O)/C=C/c1cn(C(=O)OC(C)(C)C)c2ccccc12 [Example 9, (E)-tert-butyl 3-(3-(1-isopropyl-2-(4-(2-morpholinoethoxy)benzoyl)hydrazinyl)-3-oxoprop-1-enyl)-1H-indole-1-carboxylate] | 83.8 |  |
| COCCOc1cccc(C(=O)NN(C(=O)/C=C/c2cn(C(=O)OC(C)(C)C)c3ccccc23)C(C)C)c1 [Example 10, (E)-tert-butyl 3-(3-(1-isopropyl-2-(3-(2-methoxyethoxy)benzoyl)hydrazinyl)-3-oxoprop-1-enyl)-1H-indole-1-carboxylate] | 62 | 30 to 40 |
| CC(C)N(NC(=O)c1cccc(Br)c1)C(=O)/C=C/c1cn(C(=O)OC(C)(C)C)c2ccccc12 [Example 12, (E)-tert-butyl 3-(3-(2-(3-bromobenzoyl)-1-isopropylhydrazinyl)-3-oxoprop-1-enyl)-1H-indole-1-carboxylate] | 93.5 |  |
| CC(C)N(NC(=O)c1ccc(Br)cc1)C(=O)/C=C/c1cn(C(=O)OC(C)(C)C)c2ccccc12 [Example 13, (E)-tert-butyl 3-(3-(2-(4-bromobenzoyl)-1-isopropylhydrazinyl)-3-oxoprop-1-enyl)-1H-indole-1-carboxylate] | 87.1 |  |
| CC(C)N(NC(=O)c1ccc(Cl)cc1)C(=O)/C=C/c1cn(C(=O)OC(C)(C)C)c2ccccc12 [Example 14, (E)-tert-butyl 3-(3-(2-(4-chlorobenzoyl)-1-isopropylhydrazinyl)-3-oxoprop-1-enyl)-1H-indole-1-carboxylate] | 84.4 |  |
| CC(C)N(NC(=O)c1cccc(F)c1)C(=O)/C=C/c1cn(C(=O)OC(C)(C)C)c2ccccc12 [Example 15, (E)-tert-butyl 3-(3-(2-(3-fluorobenzoyl)-1-isopropylhydrazinyl)-3-oxoprop-1-enyl)-1H-indole-1-carboxylate] | 71.2 | 20 to 30 |
| CC(C)(C)OC(=O)n1cc(/C=C/C(=O)NNC(=O)c2ccccc2)c2ccccc21 [Example 16, (E)-tert-butyl 3-(3-(2-benzoylhydrazinyl)-3-oxoprop-1-enyl)-1H-indole-1-carboxylate] | 61.7 | 30 to 40 |
| CC(C)(C)OC(=O)n1cc(/C=C/C(=O)NNS(=O)(=O)c2ccccc2)c2ccccc21 [Example 17, (E)-tert-butyl 3-(3-oxo-3-(2-(phenylsulfonyl)hydrazinyl)prop-1-enyl)-1H-indole-1-carboxylate] | 81.7 |  |
| COC(=O)COc1cccc(C(=O)NN(C(=O)/C=C/c2cn(C(=O)OC(C)(C)C)c3ccccc23)C(C)C)c1 [Example 18, (E)-tert-butyl 3-(3-(1-isopropyl-2-(3-(2-methoxy-2-oxoethoxy)benzoyl)hydrazinyl)-3-oxoprop-1-enyl)-1H-indole-1-carboxylate] | 102 |  |
| CC(C)N(NC(=O)c1cccc(OCC(=O)O)c1)C(=O)/C=C/c1cn(C(=O)OC(C)(C)C)c2ccccc12 [Example 19, (E)-2-(3-(2-(3-(1-(tert-butoxycarbonyl)-1H-indol-3-yl)acryloyl)-2-isopropylhydrazinecarbonyl)phenoxy)acetic acid] | 103 |  |
| CC(C)N(NC(=O)c1cccc(OCC(N)=O)c1)C(=O)/C=C/c1cn(C(=O)OC(C)(C)C)c2ccccc12 [Example 20, (E)-tert-butyl 3-(3-(2-(3-(2-amino-2-oxoethoxy)benzoyl)-1-isopropylhydrazinyl)-3-oxoprop-1-enyl)-1H-indole-1-carboxylate] | 109 |  |
| CC(C)N(NC(=O)c1ccccc1)C(=O)CCc1cn(Cc2ccccc2)c2ccccc12 [Example 21, N′-(3-(1-benzyl-1H-indol-3-yl)propanoyl)-N′-isopropylbenzohydrazide] | 103 |  |
| CC(C)N(NC(=O)c1ccccc1)C(=O)/C=C/c1c[nH]c2ccccc12 [Example 22, (E)-N′-(3-(1H-indol-3-yl)acryloyl)-N′-isopropylbenzohydrazide] | 116 |  |
| CC(C)N(NC(=O)c1ccccc1)C(=O)CCc1c[nH]c2ccccc12 [Example 23, N′-(3-(1H-indol-3-yl)propanoyl)-N′-isopropylbenzohydrazide] | 87.7 |  |
| CC(C)N(NC(=O)c1ccccc1)C(=O)CCc1cn(C(=O)OC(C)(C)C)c2ccccc12 [Example 24, tert-butyl 3-(3-(2-benzoyl-1-isopropylhydrazinyl)-3-oxopropyl)-1H-indole-1-carboxylate] | 60.7 | 30 to 40 |
| CC(C)N(NC(=O)c1ccccc1)C(=O)/C=C/c1cn(C)c2ccccc12 [Example 25] | 88.6 |  |
| CC(C)N(NC(=O)c1ccccc1)C(=O)/C=C/c1cn(Cc2ccccc2)c2ccccc12 [Example 26, (E)-N′-(3-(1-benzyl-1H-indol-3-yl)acryloyl)-N′-isopropylbenzohydrazide] | 59.8 | 30 to 40 |
| CC(C)N(NC(=O)c1ccccc1)C(=O)/C=C/c1cn(CC2CC2)c2ccccc12 [Example 28, (E)-N′-(3-(1-(cyclopropylmethyl)-1H-indol-3-yl)acryloyl)-N′-isopropylbenzohydrazide] | 64.4 | 30 to 40 |
| CC(C)N(NC(=O)c1ccccc1)C(=O)/C=C/c1cn(C2CC2)c2ccccc12 [Example 29, (E)-N′-(3-(1-cyclopropyl-1H-indol-3-yl)acryloyl)-N′-isopropylbenzohydrazide] | 59.6 | 30 to 40 |
| CC(=O)n1cc(/C=C/C(=O)N(NC(=O)c2ccccc2)C(C)C)c2ccccc21 [Example 30, (E)-N′-(3-(1-acetyl-1H-indol-3-yl)acryloyl)-N′-isopropylbenzohydrazide] | 89 |  |
